Patent US5688771A, “Lipophilic oligopeptides with immunomodulating activity” (priority 1993, dated 1997)
Several values for one entry are separate records, joined by “and”; a condition that tells them apart may be missing. Equal values may be shown once. Entries after “also recorded” stand apart in the source; their conditions may differ. Read-outs that look alike come from different tables or passages of the source.

Assays:
[1] = Toxicity controls: mortality and weight gain in uninfected mice; type: in vivo; settings: uninfected mice; for Mean Weight Gain: start of treatment to 24 hours after final treatment
Method: Groups of 5 uninfected mice were treated the same way and at the same times as described above. These animal were checked daily for survival. Their weigths were taken before the first treatment and 24 hours after the last treatment to determine drug effect on weight gain.

[2] = system: murinecytomegalovirus (MCMV) (Smith strain); assay: MCMV titers in tissues; type: in vivo, Swiss Webster female mice
[3] = system: Total T and B cells in splenocytes; assay: Splenic T and B cell enumeration by FACS; type: in vivo, C57BL/6 mice
Description: Splenic cells were enumerated with the following assay. Dispersed splenocytes were reacted with fluorescein isothiocyanate-labelled murine monoclonal antibody anti-Ly5 for B cell enumeration and phycoerythrin-labelled monoclonal antibody anti-Thy 1.2 for T cell counts. The labelled cells were then enumerated with a fluorescence-activated cell sorter (FACS) (EPICS-C, Coulter Corp., Hialeah, Fla.).

[4] = system: Macrophage function (IL-1 activity in splenocytes); assay: Macrophage function, IL-1 activity in splenocytes by [3H]thymidine uptake in PHA-stimulated thymocytes
Method: (§1) Mice were administered a 50 mg/kg dose of the immunomodulators of the invention and were subsequently sacrificed. The spleens were harvested and splenocytes isolated. Immunologic assays were conducted on those splenocytes that were taken 24 hours after final treatment. These cells were subjected to tests to determine macrophage and natural killer (NK) cell function.
Ribavarin (1-β-D-ribofuranosyl-1,2,4-triazole-carboxamide) was used in each subsequent experiment as a control.
(§2) Animals were treated with a 50 mg/kg/day dosage of one of the tested compound and were killed 24 hr after the final treatment and their spleens removed. […] Red blood cells were removed by haemolytic lysis.
Macrophage function was assessed by an interleukin-1 (IL-1) assay that utilizes responsiveness of mouse thymocytes to phytohemagglutin (PHA) which is dependent on IL-1 for its reactivity.
The cells were incubated 72 hr at 37° C. During the last 4 hr of the incubation, the cells were pulsed with [^3 H] thymidine (1 μCi/well). The cells were then harvested and [H^3 ] thymidine incorporation was determined using a direct counter.

[5] = system: antibody producing cells (SRBC antigen); assay: Plaque forming assay (PFC) in spleen cells of SRBC-immunized mice; type: in vivo
[6] = system: Macrophage activation (IL-1 concentration); parameters: species or system BALB/c mice; settings: mouse, in vivo, Hydrochloride
[7] = system: murinecytomegalovirus (MCMV) (Smith strain); assay: Mortality in MCMV-infected mice; type: in vivo, Swiss Webster female mice; settings: for Survivors (%) / Survivors/total / Mean day to death: MCMV-infected mice; for Survivors (%) / Survivors/total: 21 days; for Mean day to death: of mice that died on or before day 21
YAC-1 tumor cells [8] = type: in vivo, BALB/c mice; settings: for Mean percent chromium release (2SE), Effector:Target 25:1 / Mean percent chromium release (2SE), Effector:Target 50:1 / Mean percent chromium release (2SE), Effector:Target 100:1: ip, Hydrochloride
[9] = system: IgM antibody against SRBC antigen; assay: Enzyme immunoassay of IgM antibody in blood of SRBC-immunized mice; type: in vivo; settings: Experiment 7, 10 mg/kg i.p.
Method: Outbred CD1 mice were immunized with 0.1% volume for volume sheep red blood cell antigen suspended in saline. The mice were injected intraperitoneally with 0.5 ml, suspension of approximately 2×10^7 cells.
The mice were injected shortly thereafter with a suspension of an immunomodulator of the invention. The immunomodulator dose was a 0.23 ml of a 1 mg/ml suspension in phosphate buffered saline. The injected dose was 10 mg/kg. The second injection was also intraperitoneal.
The mice were killed five days after injections. Blood samples were taken for analysis of immunoglobulin. The determination was made by enzyme immunoassay using an anti μ-horseradish peroxidase conjugate. The spleen was removed, transferred to a petri dish containing 2 ml of Hank's balanced salt solution and 10 mMolar Hepes buffer (HBSS-HEPES). The spleen was gently crushed by the use of forceps, and the cell suspension was filtered through cotton gauze to eliminate cellular debris. The filtered suspension was brought to volume (5 ml) by the addition of HBSS-HEPES, the cells counted, and the suspension diluted to a final concentration of 5×10^6 cells/ml.

YAC-1 tumor cells [10] = assay: Natural killer cell activity, 4 hr chromium release assay
Method: as §1
Three week-old C57 BL/6 mice were procured and quarantined for 24 to 48 hours prior to treatment. The five oligopeptides described in tables 2, 3 and 4 were admixed with a 0.4% water solution of carboxymethylcellulose. The solutions were stored at 4° C. until use. Ribavarin (1-β-D-ribofuranosyl-1,2,4-triazole-carboxamide) was used in each subsequent experiment as a control.
as §2
Natural killer (NK) activity of murine cells was determined by testing splenic cells for their ability to lyse YAC-1 tumor cells in a conventional 4 hr chromium release assay as an indicator of NK was expressed as: % chromium release=(experimental counts per minute (cpm)-background cpm)/(maximum cpm-background cpm)

[11] = prophylactic treatment, three doses 50-200 mg/kg i.p., Hydrochloride
[12] = 50 mg/kg, splenocytes, Hydrochloride
[13] = 50 mg/kg/day i.p. every other day for 4 injections, splenocytes 24 hr after final treatment, n = 5
[14] = 50 mg/kg, splenocytes 24 hours after final treatment, Hydrochloride
[15] = 50 mg/kg i.p. days -1,+1,+3,+5,+7
[16] = 100 mg/kg i.p. days -1,+1,+3,+5,+7
[17] = 200 mg/kg i.p. days -1,+1,+3,+5,+7

CCCCCCCCCCCCCCCCCCN[C@H](C)C(=O)N[C@@H](CCC(N)=O)C(=O)O.Cl [BCH-527, Octadecyl D-Alanyl L-Glutamine Hydrochloride]
Survivors (%) ([1]; 50 mg/kg): 100%
Survivors/total ([1]; 50 mg/kg): 5/5
Mean Weight Gain ([1]; 50 mg/kg): 8.4 gm
Survivors (%) ([1]; 100 mg/kg): 100%
Survivors/total ([1]; 100 mg/kg): 5/5
Mean Weight Gain ([1]; 100 mg/kg): 9.0 gm
Survivors (%) ([1]; 200 mg/kg): 100%
Survivors/total ([1]; 200 mg/kg): 5/5
Mean Weight Gain ([1]; 200 mg/kg): 6.9 gm
Virus titer in Liver ([2]; Day 3, 50 mg/kg): 3.1±0.7 Log10 CCID50/qram
Virus titer in Lung ([2]; Day 3, 50 mg/kg): < 2.5±0.0 Log10 CCID50/qram
Virus titer in spleen ([2]; Day 3, 50 mg/kg): 6.1±0.6 Log10 CCID50/qram
Virus titer in Liver ([2]; Day 3, 100 mg/kg): 2.9±0.7 Log10 CCID50/qram
Virus titer in Lung ([2]; Day 3, 100 mg/kg): < 2.5±0.0 Log10 CCID50/qram
Virus titer in salivary gland ([2]; Day 3, 100 mg/kg): 3.0±0.4 Log10 CCID50/qram
Virus titer in spleen ([2]; Day 3, 100 mg/kg): 4.7±1.6 Log10 CCID50/qram
Virus titer in Liver ([2]; Day 3, 200 mg/kg): 2.9±0.4 Log10 CCID50/qram
Virus titer in Lung ([2]; Day 3, 200 mg/kg): < 2.5±0.0 Log10 CCID50/qram
Virus titer in salivary gland ([2]; Day 3, 200 mg/kg): < 2.5±0.0 Log10 CCID50/qram
Virus titer in spleen ([2]; Day 3, 200 mg/kg): 5.3±0.4 Log10 CCID50/qram
Virus titer in Liver ([2]; Day 6, 50 mg/kg): 3.1±1.1 Log10 CCID50/qram
Virus titer in Lung ([2]; Day 6, 50 mg/kg): 3.4±0.6 Log10 CCID50/qram
Virus titer in spleen ([2]; Day 6, 50 mg/kg): 4.3±1.2 Log10 CCID50/qram
Virus titer in Liver ([2]; Day 6, 100 mg/kg): < 2.5±0.0 Log10 CCID50/qram
Virus titer in Lung ([2]; Day 6, 100 mg/kg): 3.9±0.8 Log10 CCID50/qram
Virus titer in salivary gland ([2]; Day 6, 100 mg/kg): 2.8±0.3 Log10 CCID50/qram
Virus titer in spleen ([2]; Day 6, 100 mg/kg): 4.9±0.6 Log10 CCID50/qram
Virus titer in Liver ([2]; Day 6, 200 mg/kg): < 2.5±0.0 Log10 CCID50/qram
Virus titer in Lung ([2]; Day 6, 200 mg/kg): 3.1±0.4 Log10 CCID50/qram
Virus titer in salivary gland ([2]; Day 6, 200 mg/kg): 3.5±0.7 Log10 CCID50/qram
Virus titer in spleen ([2]; Day 6, 200 mg/kg): 3.7±0.7 Log10 CCID50/qram
Effect on tissue virus titres (in words) [2, 11]: reduced MCMV tissue virus titres; also recorded: reducing tissue virus titres
% Cells/Spleen ± SD, B Cells ([3]; 50 mg/kg/day i.p. every other day for 4 injections, anti-Ly5, n = 5): 43 ± 1.5%
% Cells/Spleen ± SD, T Cells ([3]; 50 mg/kg/day i.p. every other day for 4 injections, anti-Thy 1.2, n = 5): 39 ± 2.3%
Effect on B cell counts (in words) [3, 12]: increase % B cells; also recorded: increased B cell counts
Effect on T cell counts (in words) [3, 12]: suppressing T cells; also recorded: suppressed T cell counts
Mean CPM of Treated Thymocytes ± SD [4, 13]: 5660 ± 1011 CPM
Effect on macrophage function (in words) [4, 14]: somewhat stimulatory; also recorded: macrophage stimulation
Plaque Assay, PFC relative to control (100%) ([5]; Experiment 7, mice, 10 mg/kg i.p.): 6843%
Plaque Assay, PFC per 10^6 spleen cells ([5]; Experiment 7, mice, 10 mg/kg i.p., five days after injections): 479 ± 322 PFC per 10^6 spleen cells
Immunomodulating activity (in words) ([5]; plaque-forming assay, Table 1): immunostimulants
IL-1 Conc. (2SE) ([6]; 200 mg/kg/day): 16.6(3.7) μg/ml and 31.4(3.4) μg/ml and 29.1(7.4) μg/ml
Effect on macrophage activation (in words) [6]: significant macrophage activator; also recorded: macrophage stimulation
Survivors (%) [7, 15]: 90%
Survivors/total [7, 15]: 9/10
Mean day to death ([7]; 50 mg/kg i.p.): 4.0 ± 0.0 days
Survivors (%) [7, 16]: 78%
Survivors/total [7, 16]: 7/9
Mean day to death ([7]; 100 mg/kg i.p.): 10.5 ± 6.3 days
Survivors (%) [7, 17]: 100%
Survivors/total [7, 17]: 10/10
Mean day to death ([7]; 200 mg/kg i.p.): > 21 days
Effect on death in CMV-challenged mice (in words) [7, 11]: prevented death; also recorded: preventing death
Effect on NK cells (in words) (YAC-1 tumor cells [8]; after 4 injections at 100 and 50 mg/kg/day, […]): strong activation of NK cells
Effect on natural killer cells activity (in words) (YAC-1 tumor cells [8]; mouse, in vivo): stimulated the natural killer cells activity
Mean percent chromium release (2SE), Effector:Target 25:1 (YAC-1 tumor cells [8]; mouse, in vivo, 50 mg/kg/day): 10.8(1.3) percent and 12.7(0.4) percent and 14.8(0.9) percent
Mean percent chromium release (2SE), Effector:Target 50:1 (YAC-1 tumor cells [8]; mouse, in vivo, 50 mg/kg/day): 17.6(1.1) percent and 17.1(0.6) percent and 18.5(1.0) percent
Mean percent chromium release (2SE), Effector:Target 100:1 (YAC-1 tumor cells [8]; mouse, in vivo, 50 mg/kg/day): 21.2(2.9) percent and 23.3(1.0) percent and 23.9(1.1) percent
Mean percent chromium release (2SE), Effector:Target 25:1 (YAC-1 tumor cells [8]; mouse, in vivo, 100 mg/kg/day): 10.6(1.8) percent and 11.8(1.7) percent and 16.9(1.3) percent
Mean percent chromium release (2SE), Effector:Target 50:1 (YAC-1 tumor cells [8]; mouse, in vivo, 100 mg/kg/day): 16.6(1.9) percent and 16.4(1.8) percent and 20.8(1.4) percent
Mean percent chromium release (2SE), Effector:Target 100:1 (YAC-1 tumor cells [8]; mouse, in vivo, 100 mg/kg/day): 20.0(2.0) percent and 22.3(2.0) percent and 26.5(1.6) percent
Mean percent chromium release (2SE), Effector:Target 25:1 (YAC-1 tumor cells [8]; mouse, in vivo, 200 mg/kg/day): 11.3(0.6) percent and 8.6(0.6) percent and 9.6(0.9) percent
Mean percent chromium release (2SE), Effector:Target 50:1 (YAC-1 tumor cells [8]; mouse, in vivo, 200 mg/kg/day): 17.3(1.4) percent and 12.8(0.7) percent and 12.9(0.9) percent
Mean percent chromium release (2SE), Effector:Target 100:1 (YAC-1 tumor cells [8]; mouse, in vivo, 200 mg/kg/day): 20.4(2.4) percent and 18.2(1.0) percent and 17.6(1.1) percent
Enzyme Immunoassay, IgM antibody relative to control (100%) [9]: 523%
% Chromium Release ± SD, Effector:Target Ratio 25:1 (YAC-1 tumor cells [10]; [13]): 13.9 ± 2.0%
% Chromium Release ± SD, Effector:Target Ratio 50:1 (YAC-1 tumor cells [10]; [13]): 24.0 ± 1.7%
Effect on natural killer (NK) cell activity (in words) (YAC-1 tumor cells [10]; [14]): significantly stimulate; also recorded: stimulated
